{"source": "patent US20070093969A1", "about": "“Molecular nephrotoxicology modeling” (priority 2002, published 2007)", "key": {"[1]": {"system": "kidney tissue", "conditions": "in vivo; cited from earlier work"}, "[2]": {"system": "kidney tissue gene expression", "conditions": "rat, in vivo"}, "[3]": {"system": "kidney", "conditions": "rat; cited from earlier work"}, "[4]": {"system": "renal GST-alpha subunit, cytochrome P4502E1", "conditions": "rat, in vivo; cited from earlier work"}, "[5]": {"system": "rats", "conditions": "cited from earlier work"}, "[6]": {"system": "patients", "conditions": "human, in vivo; cited from earlier work"}, "[7]": {"system": "rats", "conditions": "rat, in vivo; cited from earlier work"}}}
{"compound": "O=C(O)Cc1ccccc1Nc1c(Cl)cccc1Cl", "note": "[diclofenac, Diclofenac]", "values": [{"measurement": "levels of BUN, malondialdehyde (MDA), SOD, and activated Ca2+-Mg2+-endonuclease", "setting": "[1]", "value": "elevated"}, {"measurement": "Tox Group Mean, GLGC Identifier 67", "setting": "[2]", "value": 1551.30}, {"measurement": "Tox Group Mean, GLGC Identifier 665", "setting": "[2]", "value": 849.30}, {"measurement": "Tox Group Mean, GLGC Identifier 725", "setting": "[2]", "value": 33.60}, {"measurement": "Tox Group Mean, GLGC Identifier 1422", "setting": "[2]", "value": 174.39}, {"measurement": "Tox Group Mean, GLGC Identifier 1527", "setting": "[2]", "value": 51.23}, {"measurement": "Tox Group Mean, GLGC Identifier 1529", "setting": "[2]", "value": 194.31}, {"measurement": "Tox Group Mean, GLGC Identifier 1698", "setting": "[2]", "value": 190.91}, {"measurement": "Tox Group Mean, GLGC Identifier 1729", "setting": "[2]", "value": 81.89}, {"measurement": "Tox Group Mean, GLGC Identifier 1847", "setting": "[2]", "value": 22.26}, {"measurement": "Tox Group Mean, GLGC Identifier 1858", "setting": "[2]", "value": 253.42}, {"measurement": "Tox Group Mean, GLGC Identifier 1888", "setting": "[2]", "value": 101.45}, {"measurement": "Tox Group Mean, GLGC Identifier 1894", "setting": "[2]", "value": 294.35}, {"measurement": "Tox Group Mean, GLGC Identifier 2128", "setting": "[2]", "value": 97.35}, {"measurement": "Tox Group Mean, GLGC Identifier 3172", "setting": "[2]", "value": 36.28}, {"measurement": "Tox Group Mean, GLGC Identifier 3439", "setting": "[2]", "value": 135.79}, {"measurement": "Tox Group Mean, GLGC Identifier 3465", "setting": "[2]", "value": 152.39}, {"measurement": "Tox Group Mean, GLGC Identifier 4449", "setting": "[2]", "value": 156.15}, {"measurement": "Tox Group Mean, GLGC Identifier 4661", "setting": "[2]", "value": 555.94}, {"measurement": "Tox Group Mean, GLGC Identifier 5461", "setting": "[2]", "value": 694.84}, {"measurement": "Tox Group Mean, GLGC Identifier 5920", "setting": "[2]", "value": 1412.80}, {"measurement": "Tox Group Mean, GLGC Identifier 5930", "setting": "[2]", "value": 73.85}, {"measurement": "Tox Group Mean, GLGC Identifier 6014", "setting": "[2]", "value": 183.73}, {"measurement": "Tox Group Mean, GLGC Identifier 6046", "setting": "[2]", "value": 83.37}, {"measurement": "Tox Group Mean, GLGC Identifier 6278", "setting": "[2]", "value": 58.48}, {"measurement": "Tox Group Mean, GLGC Identifier 6758", "setting": "[2]", "value": 59.84}, {"measurement": "Tox Group Mean, GLGC Identifier 6782", "setting": "[2]", "value": 310.65}, {"measurement": "Tox Group Mean, GLGC Identifier 6796", "setting": "[2]", "value": 304.75}, {"measurement": "Tox Group Mean, GLGC Identifier 6917", "setting": "[2]", "value": 111.53}, {"measurement": "Tox Group Mean, GLGC Identifier 7299", "setting": "[2]", "value": 595.57}, {"measurement": "Tox Group Mean, GLGC Identifier 7540", "setting": "[2]", "value": 504.78}, {"measurement": "Tox Group Mean, GLGC Identifier 7872", "setting": "[2]", "value": 63.92}, {"measurement": "Tox Group Mean, GLGC Identifier 7936", "setting": "[2]", "value": 82.66}, {"measurement": "Tox Group Mean, GLGC Identifier 7937", "setting": "[2]", "value": 34.46}, {"measurement": "Tox Group Mean, GLGC Identifier 8065", "setting": "[2]", "value": 236.57}, {"measurement": "Tox Group Mean, GLGC Identifier 8099", "setting": "[2]", "value": 72.23}, {"measurement": "Tox Group Mean, GLGC Identifier 8104", "setting": "[2]", "value": 85.37}, {"measurement": "Tox Group Mean, GLGC Identifier 8234", "setting": "[2]", "value": 22.24}, {"measurement": "Tox Group Mean, GLGC Identifier 8759", "setting": "[2]", "value": 237.31}, {"measurement": "Tox Group Mean, GLGC Identifier 8820", "setting": "[2]", "value": 743.55}, {"measurement": "Tox Group Mean, GLGC Identifier 8850", "setting": "[2]", "value": 175.34}, {"measurement": "Tox Group Mean, GLGC Identifier 8888", "setting": "[2]", "value": 22.26}, {"measurement": "Tox Group Mean, GLGC Identifier 9079", "setting": "[2]", "value": 1099.28}, {"measurement": "Tox Group Mean, GLGC Identifier 9520", "setting": "[2]", "value": 69.60}, {"measurement": "Tox Group Mean, GLGC Identifier 10434", "setting": "[2]", "value": 77.07}, {"measurement": "Tox Group Mean, GLGC Identifier 11434", "setting": "[2]", "value": 181.39}, {"measurement": "Tox Group Mean, GLGC Identifier 11755", "setting": "[2]", "value": 343.83}, {"measurement": "Tox Group Mean, GLGC Identifier 12979", "setting": "[2]", "value": 742.50}, {"measurement": "Tox Group Mean, GLGC Identifier 13013", "setting": "[2]", "value": 32.49}, {"measurement": "Tox Group Mean, GLGC Identifier 13485", "setting": "[2]", "value": 38.32}, {"measurement": "Tox Group Mean, GLGC Identifier 13542", "setting": "[2]", "value": 321.75}, {"measurement": "Tox Group Mean, GLGC Identifier 13614", "setting": "[2]", "value": 497.29}, {"measurement": "Tox Group Mean, GLGC Identifier 13966", "setting": "[2]", "value": 227.19}, {"measurement": "Tox Group Mean, GLGC Identifier 14003", "setting": "[2]", "value": 1575.92}, {"measurement": "Tox Group Mean, GLGC Identifier 14346", "setting": "[2]", "value": 174.62}, {"measurement": "Tox Group Mean, GLGC Identifier 14450", "setting": "[2]", "value": 45.80}, {"measurement": "Tox Group Mean, GLGC Identifier 15017", "setting": "[2]", "value": 2241.27}, {"measurement": "Tox Group Mean, GLGC Identifier 15035", "setting": "[2]", "value": 23.84}, {"measurement": "Tox Group Mean, GLGC Identifier 15124", "setting": "[2]", "value": 1897.22}, {"measurement": "Tox Group Mean, GLGC Identifier 15125", "setting": "[2]", "value": 3102.06}, {"measurement": "Tox Group Mean, GLGC Identifier 15379", "setting": "[2]", "value": 33.32}, {"measurement": "Tox Group Mean, GLGC Identifier 15411", "setting": "[2]", "value": 552.53}, {"measurement": "Tox Group Mean, GLGC Identifier 15679", "setting": "[2]", "value": 309.12}, {"measurement": "Tox Group Mean, GLGC Identifier 15761", "setting": "[2]", "value": 22.22}, {"measurement": "Tox Group Mean, GLGC Identifier 15964", "setting": "[2]", "value": 487.88}, {"measurement": "Tox Group Mean, GLGC Identifier 16520", "setting": "[2]", "value": 174.46}, {"measurement": "Tox Group Mean, GLGC Identifier 16521", "setting": "[2]", "value": 453.74}, {"measurement": "Tox Group Mean, GLGC Identifier 16681", "setting": "[2]", "value": 134.46}, {"measurement": "Tox Group Mean, GLGC Identifier 16982", "setting": "[2]", "value": 1036.49}, {"measurement": "Tox Group Mean, GLGC Identifier 17541", "setting": "[2]", "value": 1839.84}, {"measurement": "Tox Group Mean, GLGC Identifier 18246", "setting": "[2]", "value": 100.99}, {"measurement": "Tox Group Mean, GLGC Identifier 19067", "setting": "[2]", "value": 76.83}, {"measurement": "Tox Group Mean, GLGC Identifier 20000", "setting": "[2]", "value": 24.08}, {"measurement": "Tox Group Mean, GLGC Identifier 20457", "setting": "[2]", "value": 235.87}, {"measurement": "Tox Group Mean, GLGC Identifier 20523", "setting": "[2]", "value": 1004.68}, {"measurement": "Tox Group Mean, GLGC Identifier 20864", "setting": "[2]", "value": 3112.64}, {"measurement": "Tox Group Mean, GLGC Identifier 21012", "setting": "[2]", "value": 445.05}, {"measurement": "Tox Group Mean, GLGC Identifier 21014", "setting": "[2]", "value": 352.43}, {"measurement": "Tox Group Mean, GLGC Identifier 21145", "setting": "[2]", "value": 76.23}, {"measurement": "Tox Group Mean, GLGC Identifier 21354", "setting": "[2]", "value": 640.85}, {"measurement": "Tox Group Mean, GLGC Identifier 21491", "setting": "[2]", "value": 67.51}, {"measurement": "Tox Group Mean, GLGC Identifier 22311", "setting": "[2]", "value": 1255.02}, {"measurement": "Tox Group Mean, GLGC Identifier 22321", "setting": "[2]", "value": 138.89}, {"measurement": "Tox Group Mean, GLGC Identifier 23987", "setting": "[2]", "value": 596.80}, {"measurement": "Tox Group Mean, GLGC Identifier 24232", "setting": "[2]", "value": 48.69}, {"measurement": "Tox Group Mean, GLGC Identifier 24566", "setting": "[2]", "value": 32.95}, {"measurement": "Tox Group Mean, GLGC Identifier 24568", "setting": "[2]", "value": 78.30}, {"measurement": "Tox Group Mean, GLGC Identifier 24893", "setting": "[2]", "value": 20.58}, {"measurement": "Tox Group Mean, GLGC Identifier 25106", "setting": "[2]", "value": 28.05}, {"measurement": "Tox Group Mean, GLGC Identifier 26083", "setting": "[2]", "value": 403.60}]}
{"compound": "O=C(O)c1cc(/N=N/c2ccc(O)c(C(=O)O)c2)ccc1O", "note": "[Olsalazine]", "values": [{"measurement": "kidney findings", "setting": "[3]", "value": "interstitial nephritis and tubular necrosis"}]}
{"compound": "NNc1nncc2ccccc12", "note": "[hydralazine, Hydralazine]", "values": [{"measurement": "renal GST-alpha subunit expression", "setting": "[4]", "value": "increase"}, {"measurement": "renal cytochrome P4502E1 expression", "setting": "[4]", "value": "did not alter"}, {"measurement": "kidney copper concentrations", "setting": "[5]; compared to control groups", "value": "increased"}, {"measurement": "manganese and zinc concentrations", "setting": "[5]; rat, in vivo", "value": "not effected"}]}
{"compound": "CC(C)(Oc1ccc(C2CC2(Cl)Cl)cc1)C(=O)O", "note": "(stereo not shown) [Ciprofibrate]", "values": [{"measurement": "plasma creatinine and urea levels", "setting": "[6]", "value": "elevated"}]}
{"compound": "CC1CCC(NC(=O)N(CCCl)N=O)CC1", "note": "(stereo not shown) [Semustine]", "values": [{"measurement": "renal injury", "setting": "[7]", "value": "proximal tubule injury and papillary necrosis"}]}
